Among the test systems are ACHN renal; DU-145 prostate; EKVX NSCLC; HL-60(TB) leukemia; HT29 colon; LOX IMVI melanoma; MDA-MB-231 breast; NCI-H460 lung; PC-3 prostate; SF-539 CNS; SK-MEL-5 melanoma; SW-620 colon; U251 CNS.
Common to all, as to assay: DTP human tumour cell line panel, 48 h

Each structure is given as a SMILES string.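 Interpolation was linear, between the two tested concentrations surrounding the appropriate level; five concentrations were tested over 48 hours in 96-well plates. The concentration for 50% growth inhibition is given as GI50. TGI: concentration producing complete growth inhibition.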

The term TGI denotes the concentration at which net growth stops. As usually defined, the GI50 is the concentration giving 50% growth inhibition.

With `C=CCCC(=O)CC(O)(C(F)(F)F)C(F)(F)F`, the TGI with ACHN renal, with DU-145 prostate, in the test on EKVX NSCLC, in the test on HL-60(TB) leukemia, in the test on HT29 colon and in the test on LOX IMVI melanoma was > 100 µM in each case. Further, the TGI in the test on MDA-MB-231 breast, in the test on NCI-H460 lung, in the test with PC-3 prostate, in the test on SF-539 CNS, in the test with SK-MEL-5 melanoma and with SW-620 colon was > 100 µM in each case. Also, the TGI in the test with U251 CNS was > 100 µM.

For the compound `Cc1ccc2c(c1)[nH]c1cc(C(F)(F)F)ccc1[p+]2=O` (stereo unspecified), the TGI in the test on ACHN renal is > 100 µM; in the test on DU-145 prostate, > 100 µM; in the test on EKVX NSCLC, 22.2 µM; with HL-60(TB) leukemia, 56.2 µM; with HT29 colon, > 100 µM; in the test on LOX IMVI melanoma, > 100 µM. Besides, the TGI was 49.1 µM in the test with MDA-MB-231 breast; > 100 µM with NCI-H460 lung; 73.5 µM with PC-3 prostate; > 100 µM in the test on SF-539 CNS; 34 µM with SK-MEL-5 melanoma; > 100 µM with SW-620 colon. Also, the TGI in the test with U251 CNS is > 100 µM.

Turning to `C1CCC2C(C1)CCCC2NC1=NCCO1` (stereo unspecified), the TGI with ACHN renal, with DU-145 prostate, in the test with EKVX NSCLC, with HL-60(TB) leukemia, in the test on HT29 colon and with LOX IMVI melanoma was > 100 µM each time. Also, the TGI in the test on MDA-MB-231 breast, with NCI-H460 lung, with PC-3 prostate, in the test on SF-539 CNS, with SK-MEL-5 melanoma and in the test with SW-620 colon was > 100 µM throughout. Further, the TGI in the test on U251 CNS was > 100 µM.

Consider `COc1ccc(/C=N/N=C(\N)NO)c(O)c1`, for which the TGI with ACHN renal, in the test on DU-145 prostate, in the test with EKVX NSCLC, in the test with HL-60(TB) leukemia, in the test on HT29 colon and in the test on LOX IMVI melanoma was > 10 µM throughout. For the same compound, the TGI with MDA-MB-231 breast, with NCI-H460 lung, in the test with PC-3 prostate, in the test with SF-539 CNS, in the test on SK-MEL-5 melanoma and with SW-620 colon was > 10 µM throughout. Moreover, the TGI in the test on U251 CNS was > 10 µM.

Turning to `COC(=O)C1=CC(=O)OC1(OO)c1ccccc1` (stereo unspecified), the TGI with ACHN renal was > 100 µM; in the test with DU-145 prostate, > 100 µM; in the test on EKVX NSCLC, > 100 µM; in the test on HL-60(TB) leukemia it was 20.4 µM; in the test with HT29 colon, > 100 µM; with LOX IMVI melanoma it was > 100 µM. For the same compound, the TGI in the test on MDA-MB-231 breast, with NCI-H460 lung, in the test on PC-3 prostate, in the test with SF-539 CNS, in the test on SK-MEL-5 melanoma and in the test with SW-620 colon was > 100 µM in each case. For the same compound, in the test on U251 CNS, the TGI is > 100 µM.

`NCCN=C(Nc1ccccc1)Nc1ccccc1`: the TGI in the test on DU-145 prostate, in the test on EKVX NSCLC, in the test with HL-60(TB) leukemia, in the test with HT29 colon, with LOX IMVI melanoma and with MDA-MB-231 breast was > 100 µM throughout. The TGI in the test with NCI-H460 lung, with PC-3 prostate, with SF-539 CNS, in the test on SK-MEL-5 melanoma, in the test with SW-620 colon and with U251 CNS was > 100 µM in each case.

On to `O=C(OCC1OC2OC(c3ccccc3)(n3ccc4c([N+](=O)[O-])ccnc43)OC2C1OC(=O)c1ccccc1)c1ccccc1` (stereo unspecified), for which the TGI in the test with ACHN renal, in the test on DU-145 prostate, with EKVX NSCLC, in the test with HL-60(TB) leukemia, in the test on HT29 colon and in the test with LOX IMVI melanoma was > 100 µM throughout. Further, the TGI in the test with MDA-MB-231 breast, in the test with NCI-H460 lung, with PC-3 prostate, in the test with SK-MEL-5 melanoma, in the test with SW-620 colon and with U251 CNS was > 100 µM each time.

For the compound `CCCCCC(=O)NC(=S)Nc1nn[nH]n1`, the TGI with DU-145 prostate, in the test with EKVX NSCLC, in the test with HL-60(TB) leukemia, in the test on LOX IMVI melanoma, in the test with MDA-MB-231 breast and in the test on NCI-H460 lung was > 100 µM each time. Besides, the TGI in the test with PC-3 prostate, in the test on SF-539 CNS, in the test on SK-MEL-5 melanoma, in the test on SW-620 colon and in the test with U251 CNS was > 100 µM in each case.

On to `Cc1ccc(S(=O)(=O)OCC(=O)O)cc1`, for which the concentration for total growth inhibition (TGI) with ACHN renal, with DU-145 prostate, with EKVX NSCLC, in the test with HL-60(TB) leukemia, in the test with HT29 colon and in the test on LOX IMVI melanoma was > 100 µM in each case. Moreover, the TGI in the test on MDA-MB-231 breast, in the test with NCI-H460 lung, in the test on PC-3 prostate, in the test with SK-MEL-5 melanoma, with SW-620 colon and in the test with U251 CNS was > 100 µM each time.

Take `CCOC(=O)/C1=C(\C)N(c2ccc(C)cc2)C(=O)c2ccccc2C(=O)c2c(OC(C)=O)ccc(OC(C)=O)c21`: the TGI in the test with ACHN renal is 77.2 µM; with DU-145 prostate, > 100 µM; in the test with HL-60(TB) leukemia, 54.4 µM; in the test on HT29 colon, 35.7 µM; with LOX IMVI melanoma, 41.7 µM; in the test on MDA-MB-231 breast it was 83.9 µM. Besides, the TGI in the test with NCI-H460 lung was 47.8 µM; in the test with PC-3 prostate it was > 100 µM; in the test on SF-539 CNS it was 69.1 µM; with SK-MEL-5 melanoma, > 100 µM; with SW-620 colon, > 100 µM; in the test on U251 CNS, 97.9 µM.

On to `CC(=O)c1ccc2c3c1[C@@H]1O[C@@H]1c1cccc(c1-3)[C@@H]1O[C@H]21`, for which the TGI in the test on ACHN renal is 37.4 µM; in the test with DU-145 prostate it was 23.2 µM; in the test on EKVX NSCLC, 39.5 µM; in the test on HL-60(TB) leukemia, 35 µM; in the test with HT29 colon it was > 27.9 µM; in the test on LOX IMVI melanoma, 6.21 µM. For the same compound, the total growth inhibition concentration (TGI) in the test with MDA-MB-231 breast was 42.9 µM; in the test on PC-3 prostate it was > 52.3 µM; with SK-MEL-5 melanoma it was 26 µM; in the test on SW-620 colon it was 7.99 µM; in the test on U251 CNS it was 19.3 µM. Also, in the test with LOX IMVI melanoma, the GI50 is 2.6 µM.

Source of the values: PubChem BioAssay (NCI).
